Source: patent US10071133B2, “Method for destroying exosomes, kit for destroying exosomes, and method for isolating exosomes derived from normal cells” (priority 2015, dated 2018)

Experiments:
[1] = tested on: exosomes derived from human breast cancer cells (MM231-luc-D3H2LN) in human peripheral blood sample; details: […]10^10 particles/mL exosomes, 100 μM magainin 2 or 8% phenol, 25° C., 24 hours
Experimental: The exosome fraction A prepared from the cell line MM231-luc-D3H2LN derived from human breast cancer cells was added to a peripheral blood sample collected from a healthy person with no cancer (hereinafter will be also referred to as human peripheral blood sample) so as to become an exosome concentration of an actual cancer patient, and thereby an artificial sample of a human peripheral blood of the cancer patient was produced. The human peripheral blood sample was obtained after procurement of the patient informed consent according to the Declaration of Helsinki, similarly to the method described in Japanese Unexamined patent publication No. 2013-198483, for example. Blood was drawn using a blood collection tube containing an anticoagulant.
Using a part of the incubated solution, the exosomes were purified with Exo-Flow32 CD9 IP Kit (manufactured by SBI), and then the number of exosomes in the solution was measured using the nanoparticle analyzer (NanoSight LM10; manufactured by NanoSight, Ltd.). […] In addition, a part of the incubated solution was subjected to the serum component protein electrophoresis.

[2] = tested on: exosome fraction B derived from human breast cancer cells (MDA-MB-231-luc-D3H2LN); assay: Extraction of microRNA (miR-21) from exosomes derived from human breast cancer cells, real-time PCR; type: biochemical; details: 100 μM peptide, 1×10^11 particles/mL exosomes, 0.4 U/μL RNase inhibitor, 37° C., 24 hours; without peptide 8×10^−14M
[3] = tested on: exosome fraction A prepared from the cell line MM231-luc-D3H2LN derived from human breast cancer cells; assay: Destruction of exosomes in PBS, number of exosomes by nanoparticle analyzer (NanoSight LM10); type: biochemical; details: 100 μM peptide, 1.36×10^10 particles/mL exosomes in PBS, 25° C., 24 hours; without peptide 1.36×10^10
Source text: Storage samples were lightly suspended with a vortex mixer (vibration mixer) before use.

[4] = tested on: exosome fraction B derived from human breast cancer cells versus exosome fraction derived from normal human serum; assay: Selectivity: miR-16 ratio, breast cancer exosomes versus normal human serum exosomes (Formula 2); type: biochemical; details: Formula 2, cancer/normal human serum exosomes; magainin 2 100 μM, 37° C., 24 hours
Experimental: A cell suspension of cell line MDA-MB-231-luc-D3H2LN derived from human breast cancer (=MM231-luc-D3H2LN, provided by the National Cancer Center Research Institute) was seeded in a dish containing RPMI 1640 medium (manufactured by Thermo Fisher Scientific Inc.) containing 10% fetal bovine serum. Subsequently, the cell line was grown at 37° C. under the condition that CO2 concentration was set to 5 volume % using a CO2 incubator, and then the medium was replaced with Advanced RPMI 1640 medium (manufactured by Thermo Fisher Scientific Inc.), followed by culturing for 48 hours, and therefore the culture solution containing exosomes was obtained. This culture solution was centrifuged at 2,000 G for 10 minutes to remove the precipitate, followed by centrifugation at 110,000 G for 70 minutes to precipitate the exosomes, and therefore an exosome fraction B was recovered. The recovered exosome fraction B was suspended in a phosphate buffered saline (PBS) and then stored at 4° C. Storage samples were lightly suspended with a vortex mixer (vibration mixer) before use.
Storage samples were lightly suspended with a vortex mixer (vibration mixer) before use. […]

Magainin 2
exosome amount compared to Comparative Example 3 (no additive) [1]: decreased | Destructive activity (concentration of microRNA miR-21 in eluate) [2]: A (the concentration of microRNA is 50×10^−14M or more) | number of exosomes in the solution [3]: 1.89×10^9 particles/mL | mir-16 ratio [4]: 56.6
